Results published in patent US20230250096A1, “SUBSTITUTED PHENYL-1H-PYRROLO[2,3-c] PYRIDINE DERIVATIVES” (Janssen Pharmaceutica NV, priority 2021, published 2023).

Target: T1, menin/MLL (terbium chelate-labeled menin, FITC-MBM1 peptide) (Homo sapiens, UniProt O00255, T541A)
T1 construct: Menin (a.a 1-610-6xhis tag, 2.3 mg/mL in 20 mM Hepes)
T1 sequence (O00255 with tags, fused parts or gaps T541A): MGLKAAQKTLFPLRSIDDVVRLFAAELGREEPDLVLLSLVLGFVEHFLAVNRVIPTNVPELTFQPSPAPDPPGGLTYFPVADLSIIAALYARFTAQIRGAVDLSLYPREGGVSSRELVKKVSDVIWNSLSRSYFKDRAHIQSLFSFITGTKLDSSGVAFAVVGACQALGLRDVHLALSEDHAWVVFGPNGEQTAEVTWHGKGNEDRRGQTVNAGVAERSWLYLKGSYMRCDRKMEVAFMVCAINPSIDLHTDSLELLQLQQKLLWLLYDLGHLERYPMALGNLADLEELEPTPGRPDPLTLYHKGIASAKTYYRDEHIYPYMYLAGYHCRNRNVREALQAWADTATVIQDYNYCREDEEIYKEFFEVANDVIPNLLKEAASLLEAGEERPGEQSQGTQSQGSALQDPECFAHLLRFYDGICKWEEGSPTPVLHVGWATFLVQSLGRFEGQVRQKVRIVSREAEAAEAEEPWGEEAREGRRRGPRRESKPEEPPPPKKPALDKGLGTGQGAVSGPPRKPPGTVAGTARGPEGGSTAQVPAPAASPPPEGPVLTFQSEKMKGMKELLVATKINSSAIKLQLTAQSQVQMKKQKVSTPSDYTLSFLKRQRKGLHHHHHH
Assay: Menin/MLL homogenous time-resolved fluorescence (HTRF) assay
Assay type: binding
Conditions: 30 min incubation
Summary of the method: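 Competition binding read by time-resolved FRET (FITC 520 nm over terbium 490 nm) after compound meets labeled menin 1-610-His […] for 30 min, then FITC-MBM1 (75 nM) for 15 min, ambient temperature, 0.5% DMSO. Eleven-point four-fold dilutions, usually starting at 10 μM, fitted to four-parameter curves for IC50.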

IC50 [nM]	Compound
0.034	CNC(=O)[C@H]1CC[C@H](CN2CC(Cc3cn(-c4ccc(F)cc4C(=O)N(C)C(C)C)c4cncc(C)c34)C2)CC1 [Compound 74]
0.072	Cc1cncc2c1c(CC1CN(CC3CCC(O)CC3)C1)cn2-c1ccc(F)cc1C(=O)N(C)C(C)C (stereo not drawn) [Compound 144]
0.077	COC(=O)[C@H]1CC[C@@H](CN2CC[C@@H](Cc3cn(-c4ccc(F)cc4C(=O)N(C)C(C)C)c4cncc(C)c34)C2)CC1 [Compound 153]
0.055	Cc1cncc2c1c(C[C@@H]1CCN(C[C@H]3CC[C@@H](C(=O)N4CCC4)CC3)C1)cn2-c1ccc(F)cc1C(=O)N(C)C(C)C [Compound 178]
0.097	CNC(=O)[C@H]1CC[C@@H](CN2CC[C@@H](Cc3cn(-c4ccc(F)cc4C(=O)N(C)C(C)C)c4cncc(C)c34)C2)CC1 [Compound 185]
0.544	CC(=O)N1CCC(CCN2CC[C@@H](Cc3cn(-c4ccc(F)cc4C(=O)N(C)C(C)C)c4cncc(C)c34)C2)CC1 [Compound 189]
0.327	Cc1cncc2c1c(C[C@@H]1CCN(C[C@H]3CCCCN3)C1)cn2-c1ccc(F)cc1C(=O)N(C)C(C)C [Compound 199]
0.081	CNC(=O)N1CCC(CN2CCC(Cc3cn(-c4ccc(F)cc4C(=O)N(C)C(C)C)c4cncc(C)c34)CC2)CC1 [Compound 202]
0.069	CON(C)C(=O)N1CCC(CN2CCC(Cc3cn(-c4ccc(F)cc4C(=O)N(C)C(C)C)c4cncc(C)c34)CC2)CC1 [Compound 203]
0.091	Cc1cncc2c1c(CC1CCN(CC3CCN(C(=O)N4CCOCC4)CC3)CC1)cn2-c1ccc(F)cc1C(=O)N(C)C(C)C [Compound 204]
0.106	Cc1cncc2c1c(C[C@@H]1CCN(CC3CCC(O)CC3)C1)cn2-c1ccc(F)cc1C(=O)N(C)C(C)C (stereo partly drawn) [Compound 205]
0.016	Cc1cncc2c1c(C[C@@H]1CCN(CC3CCN(C(N)=O)CC3)C1)cn2-c1ccc(F)cc1C(=O)N(C)C(C)C [Compound 207]
0.071	CC(=O)N1CCC(CN2CC[C@@H](Cc3cn(-c4ccc(F)cc4C(=O)N4CCC[C@H]4C)c4cncc(C)c34)C2)CC1 [Compound 315]
0.055	CC(=O)N1CCC(CN2CC[C@@H](Cc3cn(-c4ccc(F)cc4C(=O)N4[C@@H](C)CC[C@@H]4C)c4cncc(C)c34)C2)CC1 [Compound 316]
0.293	CC(=O)N1CCC(CN2CC[C@@H](Cc3cn(-c4ccc(F)cc4C(=O)N4CCC[C@@H]4C)c4cncc(C)c34)C2)CC1 [Compound 319]
0.078	CC(=O)N1CCC(CN2CC[C@@H](Cc3cn(-c4ccc(F)cc4C(=O)N(CC(C)O)C(C)C)c4cncc(C)c34)C2)CC1 (stereo partly drawn) [Compound 320]
0.101	Cc1cncc2c1c(C[C@@H]1CCN(CC3CCN(C(=O)C(C)C)CC3)C1)cn2-c1ccc(F)cc1C(=O)N1CCC[C@H]1CO [Compound 328]

Continued, compound first:

Compound	IC50 [nM]
COCCN(C)CCCC(C(C)C)N1CCC(Cc2cn(-c3ccc(F)cc3C(=O)N(C)C(C)C)c3cncc(F)c23)C1 (stereo not drawn) [Compound 6]	0.288
CNC(=O)c1cncc(N2CCC(N3CC(Cc4cn(-c5ccc(F)cc5C(=O)N(C)C(C)C)c5cncc(C)c45)C3)CC2)n1 [Compound 75]	0.059
CN=S(=O)(c1cc(F)ccc1-n1cc(CC2CCN(CC3CCOCC3)C2)c2c(C)cncc21)C(C)C (stereo not drawn) [Compound 77]	0.191
CC(=O)N1CCC(C)(CN2CC(Cc3cn(-c4ccc(F)cc4C(=O)N(C)C(C)C)c4cncc(C)c34)C2)CC1 [Compound 84]	0.075
Cc1cncc2c1c(CC1CN(CC3CCNC(=O)CC3)C1)cn2-c1ccc(F)cc1C(=O)N(C)C(C)C (stereo not drawn) [Compound 104]	0.147
CN=S(=O)(c1cc(F)ccc1-n1cc(CC2CCN(CC3CCN(C(C)=O)CC3)C2)c2c(C)cncc21)C(C)C (stereo not drawn) [Compound 128]	0.078
CC(=O)NC1CCC(N2CC[C@@H](Cc3cn(-c4ccc(F)cc4C(=O)N(C)C(C)C)c4cncc(C)c34)C2)CC1 (stereo partly drawn) [Compound 200]	0.909
CC(=O)NC1CCC(N2CC[C@@H](Cc3cn(-c4ccc(F)cc4C(=O)N(C)C(C)C)c4cncc(C)c34)C2)CC1 (stereo partly drawn) [Compound 201]	0.063
CC(=O)N1CC2CC(C1)C2N1CC[C@H](Cc2cn(-c3ccc(F)cc3C(=O)N(C)C(C)C)c3cncc(C)c23)C1 (stereo partly drawn) [Compound 208]	0.147
CC(=O)N1CC2CC(C1)C2N1CC[C@@H](Cc2cn(-c3ccc(F)cc3C(=O)N(C)C(C)C)c3cncc(C)c23)C1 (stereo partly drawn) [Compound 209]	0.202
CC(=O)NC1CCC(N2CC[C@H](Cc3cn(-c4ccc(F)cc4C(=O)N(C)C(C)C)c4cncc(C)c34)C2)CC1 (stereo partly drawn) [Compound 211]	0.032
CC(=O)N1CCC(CN2CCC(Cc3cn(-c4ccc(F)cc4C(=O)N(C)C(C)C)c4cncc(C)c34)C2C)CC1 (stereo not drawn) [Compound 228]	0.061
Cc1cncc2c1c(CC1CN(CC3CCOCC3)C1)cn2-c1ccc(F)cc1C(=O)N1CCC2CC21 (stereo not drawn) [Compound 262]	0.018
Cc1cncc2c1c(CC1CN(CC3CCOCC3)C1)cn2-c1ccc(F)cc1C(=O)N1CC2CC1CO2 (stereo not drawn) [Compound 264]	0.034
Cc1cncc2c1c(CC1CN(CC3CCOCC3)C1)cn2-c1ccc(F)cc1C(=O)N1CCCC1CO (stereo not drawn) [Compound 268]	0.149
Cc1cncc2c1c(CC1CN(CC3CCOCC3)C1)cn2-c1ccc(F)cc1C(=O)N1CCC[C@H]1C [Compound 279]	0.025
Cc1cncc2c1c(CC1CN(CC3CCOCC3)C1)cn2-c1ccc(F)cc1C(=O)N(CCO)C(C)C [Compound 281]	0.058
CC(=O)N1CCC(CN2CC[C@@H](Cc3cn(-c4ccc(F)cc4C(=O)N4CCC5CC54)c4cncc(C)c34)C2)CC1 (stereo partly drawn) [Compound 311]	0.031
CC(=O)N1CCC(CN2CC[C@@H](Cc3cn(-c4ccc(F)cc4C(=O)N4CC5CC4CO5)c4cncc(C)c34)C2)CC1 (stereo partly drawn) [Compound 312]	0.058
